Laboratory results: the NIST ThermoML archive (doi:10.1021/je100522z)
Values joined by “and” are separate entries in the source; they are usually repeats but may differ in a detail not shown here. Equal entries are not always repeated.

Legend:
[1] = molar heat capacity at constant pressure; conditions: 101.33 kPa, Liquid, Small sample (50 mg) DSC
[2] = 101.33 kPa, Liquid
[3] = excess molar enthalpy (molar enthalpy of mixing); xn = mol fraction of the nth substance listed; conditions: 101.3 kPa, Liquid, Calvet calorimetry

C[n+]1ccn(CCO)c1.O=C([O-])C(F)(F)F
Conditions	mass density, [2] [kg/m3]	molar heat capacity at constant pressure, [1] [J/K/mol]
283.15 K	–	362
293.15 K	1370.39	367
298.15 K	1366.36	–
303.15 K	1362.51	371
313.15 K	1354.8	376
323.15 K	1346.98	381
333.15 K	1339.46	387
343.15 K	1331.98	394

CCOP(=O)([O-])OCC.CCn1cc[n+](C)c1 [1-ethyl-3-methylimidazolium diethyl phosphate]
Conditions	mass density, [2] [kg/m3]	molar heat capacity at constant pressure, [1] [J/K/mol]
283.15 K	–	517
293.15 K	1148.92	528
298.15 K	1145.47	–
303.15 K	1142.03	533
313.15 K	1135.19	540
323.15 K	1128.57	545
333.15 K	1121.94	547
343.15 K	1115.36	557

CCOP(=O)([O-])OCC.CCn1cc[n+](C)c1 [1-ethyl-3-methylimidazolium diethyl phosphate] + O
[3]
Conditions	excess molar enthalpy [kcal/mol]
313.13 K, x2 = 0.2497	-0.813
313.13 K, x2 = 0.2506	-0.815
313.13 K, x2 = 0.5025	-1.34
313.13 K, x2 = 0.5036	-1.34
313.13 K, x2 = 0.7514	-1.25
313.13 K, x2 = 0.7538	-1.25
333.13 K, x2 = 0.2456	-0.786
333.13 K, x2 = 0.2473	-0.786
333.13 K, x2 = 0.4977	-1.31
333.13 K, x2 = 0.508	-1.32
333.13 K, x2 = 0.7491	-1.23
333.13 K, x2 = 0.7512	-1.22
348.12 K, x2 = 0.2452	-0.779
348.12 K, x2 = 0.2477	-0.796
348.12 K, x2 = 0.4992	-1.29
348.12 K, x2 = 0.4996	-1.29
348.12 K, x2 = 0.7481	-1.19
348.12 K, x2 = 0.7485	-1.18

CCn1cc[n+](C)c1.O=S(=O)([O-])O [1-ethyl-3-methylimidazolium hydrogen sulfate]
Conditions	mass density, [2] [kg/m3]	molar heat capacity at constant pressure, [1] [J/K/mol]
283.15 K	–	290
293.15 K	1369.28	294
298.15 K	1365.79	–
303.15 K	1362.63	297
313.15 K	1356.27	302
323.15 K	1350.14	306
333.15 K	1344.38	313
343.15 K	1338.46	324

CCn1cc[n+](C)c1.CS(=O)(=O)[O-] [1-ethyl-3-methylimidazolium methanesulfonate]
Conditions	mass density, [2] [kg/m3]	molar heat capacity at constant pressure, [1] [J/K/mol]
283.15 K	–	327
293.15 K	1247.31	327
298.15 K	1243.83	–
303.15 K	1240.45	330
313.15 K	1233.48	334
323.15 K	1227.03	339
333.15 K	1220.33	344
343.15 K	1213.79	350

CCn1cc[n+](C)c1.COS(=O)(=O)[O-] [1-ethyl-3-methylimidazolium methylsulfate]
Conditions	mass density, [2] [kg/m3]	molar heat capacity at constant pressure, [1] [J/K/mol]
283.15 K	–	324
293.15 K	1291.15	330
298.15 K	1287.75	–
303.15 K	1284.37	332
313.15 K	1277.61	337
323.15 K	1270.87	343
333.15 K	1264.22	347
343.15 K	1257.72	354

CCn1cc[n+](C)c1.N#C[S-] [1-ethyl-3-methylimidazolium thiocyanate]
Conditions	mass density, [2] [kg/m3]	molar heat capacity at constant pressure, [1] [J/K/mol]
283.15 K	–	285
293.15 K	1119.02	287
298.15 K	1115.96	–
303.15 K	1112.91	288
313.15 K	1106.85	290
323.15 K	1100.85	293
333.15 K	1094.91	296
343.15 K	1089.06	300

CCn1cc[n+](C)c1.N#C[S-] [1-ethyl-3-methylimidazolium thiocyanate] + O
[3]
Conditions	excess molar enthalpy [kcal/mol]
313.14 K, x2 = 0.1503	-0.059
313.14 K, x2 = 0.2483	-0.0865
313.14 K, x2 = 0.2501	-0.0868
313.14 K, x2 = 0.498	-0.101
313.14 K, x2 = 0.4996	-0.101
313.14 K, x2 = 0.7488	-0.0261
313.14 K, x2 = 0.7493	-0.0258
313.14 K, x2 = 0.8994	0.0433
313.14 K, x2 = 0.8996	0.043
333.14 K, x2 = 0.1477	-0.0614
333.14 K, x2 = 0.1479	-0.0609
333.14 K, x2 = 0.25	-0.0887
333.14 K, x2 = 0.2506	-0.0889
333.14 K, x2 = 0.5014	-0.0939
333.14 K, x2 = 0.5016	-0.0942
333.14 K, x2 = 0.6521	-0.0483
333.14 K, x2 = 0.6524	-0.0483
333.14 K, x2 = 0.8965	0.0619
333.14 K, x2 = 0.898	0.0621
348.13 K, x2 = 0.1467	-0.0629
348.13 K, x2 = 0.1516	-0.0652
348.13 K, x2 = 0.2472	-0.0884
348.13 K, x2 = 0.251	-0.0877
348.13 K, x2 = 0.499	-0.087
348.13 K, x2 = 0.4992	-0.0868
348.13 K, x2 = 0.6015	-0.0552
348.13 K, x2 = 0.6029	-0.0545
348.13 K, x2 = 0.8992	0.082
348.13 K, x2 = 0.8993	0.082

CCCCCCn1cc[n+](C)c1.O=S(=O)([O-])C(F)(F)F [1-hexyl-3-methylimidazolium trifluoromethanesulfonate]
[1]
Conditions	molar heat capacity at constant pressure [J/K/mol]
283.15 K	484
293.15 K	493
303.15 K	500
313.15 K	506
323.15 K	513
333.15 K	516
343.15 K	522

CCCCCCn1cc[n+](C)c1.O=S(=O)([O-])C(F)(F)F [1-hexyl-3-methylimidazolium trifluoromethanesulfonate] + O
[3]
Conditions	excess molar enthalpy
313.12 K, x2 = 0.3964	0.325 kcal/mol
313.12 K, x2 = 0.3978	0.325 kcal/mol
313.12 K, x2 = 0.6294	0.387 kcal/mol
313.12 K, x2 = 0.6334	0.387 kcal/mol
313.12 K, x2 = 0.8633	0.174 kcal/mol and 0.172 kcal/mol
333.12 K, x2 = 0.3946	0.354 kcal/mol
333.12 K, x2 = 0.3993	0.359 kcal/mol
333.12 K, x2 = 0.6304	0.449 kcal/mol
333.12 K, x2 = 0.8633	0.239 kcal/mol
348.13 K, x2 = 0.3956	0.378 kcal/mol
348.13 K, x2 = 0.3977	0.382 kcal/mol
348.13 K, x2 = 0.6302	0.504 kcal/mol
348.13 K, x2 = 0.635	0.504 kcal/mol
348.13 K, x2 = 0.8633	0.289 kcal/mol

CCCC[P+](CC)(CCCC)CCCC.CCOP(=O)([O-])OCC [tributylethylphosphonium diethylphosphate]
Conditions	mass density, [2] [kg/m3]	molar heat capacity at constant pressure, [1] [J/K/mol]
283.15 K	–	683
293.15 K	1010.74	706
298.15 K	1007.43	–
303.15 K	1004.1	716
313.15 K	997.42	728
323.15 K	990.87	739
333.15 K	984.33	753
343.15 K	977.79	768

CCCC[P+](CC)(CCCC)CCCC.CCOP(=O)([O-])OCC [tributylethylphosphonium diethylphosphate] + O
[3]
Conditions	excess molar enthalpy [kcal/mol]
313.11 K, x2 = 0.2619	-0.315
313.11 K, x2 = 0.2622	-0.318
313.11 K, x2 = 0.5134	-0.619
313.11 K, x2 = 0.5174	-0.624
313.11 K, x2 = 0.762	-0.696
313.11 K, x2 = 0.7628	-0.696
333.11 K, x2 = 0.2606	-0.284
333.11 K, x2 = 0.2633	-0.289
333.11 K, x2 = 0.5116	-0.552
333.11 K, x2 = 0.5118	-0.554
333.11 K, x2 = 0.7594	-0.619
333.11 K, x2 = 0.7601	-0.621
348.11 K, x2 = 0.2623	-0.27
348.11 K, x2 = 0.2642	-0.272
348.11 K, x2 = 0.5185	-0.511
348.11 K, x2 = 0.5213	-0.514
348.11 K, x2 = 0.7613	-0.554
348.11 K, x2 = 0.7635	-0.554
